Reference: patent publication US20180360940A1, “LISTERIA-BASED IMMUNOTHERAPY AND METHODS OF USE THEREOF” (priority 2015, published 2018)
Like-named read-outs stand apart in the source and are kept apart here.

Columns and labels:
[1] = test system: PSA-specific and SIINFEKL-specific immunity; assay: PSA- and […]-specific CD8 T cells after PSA-SVN Tag with early antibiotics; type: in vivo, C57BL/6 mice; settings: PSA-SVN Tag IP, spleens day 7
Description: FIGS. 17A-D Results from early time point administration of ampicillin at 2 hours, 4 hours, and 6 hours post-Lm vaccine. % PSA specific CD8 T cells (FIG. 17A), % […] specific CD8 T cells (FIG. 17B), # of PSA specific CD8 cells (FIG. 17C), and # of […] specific CD8 cells (FIG. 17D).
FIGS. 18A-B Splenocytes from early gentamicin treatment at 2 hours, 4 hours, or 6 hours +ampicillin 24 hour chase of LM-PSA-SVN treated mice. % PSA specific CD8 T cells (FIG. 18A) and % […] specific CD8 T cells (FIG. 18B).
An assay was performed to examine the generation of […]-specific and PSA-specific immunity in mice treated with ampicillin or gentamicin/ampicillin and immunized with PSA-SVN Tag. The […]-specific immune response was detected by pentamer staining using the known T cell epitopes for C57BL/6 mice, H-2 Db PSA65-73 ([…]) and H-2 Kb OVA257-264 ([…]).
Prime-Harvest with Ampicillin: On Day 0, all groups were infected with PSA-SVN Tag LM IP, and then ampicillin was administered at 100 mg/kg IP at various time points from hour 2, 4, 6, 24. All Animals (except negative control) were given 1 dose of ampicillin at 24 hours. 7 days after Day 0 infection, mice were sacrificed and spleens were harvested and analyzed for specific T-cell epitopes to H-2 Db PSA65-73 ([…]) and H-2 Kb OVA257-264 ([…]). […]

[2] = 10 mg/mL in sterile H2O, cited from earlier work
TC-1 tumor = TC-1 tumor regression study, ADXS11-001 with or without ampicillin; type: in vivo, C57BL/6 female mice; settings: DP ADXS11-001 (HPV 1.0) IP, ampicillin 100 mg/kg IP at 4-hr, 6-hr, 24-hr
Description: FIG. 20A-B Results for ADXS11-001 therapy with our without early ampicillin treatment. TC1 tumor regression (FIG. 20A) and % survival (FIG. 20B).
A tumor regression study was initiated in C57BL/6 female mice using TC-1 lung epithelial cells to assess the therapeutic efficacy of different Lm treatment with or without ampicillin treatment and whether it alters the tumor microenvironment.
Tumor Inoculation: The tumor model used in this study is the TC-1 tumor model. TC-1 cells are cultured in complete medium. Complete medium for TC-1 cells: 450 ml RPMI 1640, 50 ml 10%FBS, 5 ml NEAA (100 uM), 5 ml L-Glutamine ([…]), and 5 ml Pen/strep (100 U/mL) penicillin+100 ug/mL streptomycin) G418 (400 ug/mL) (added to cells when splitting). Two days prior to implanting tumor cells in mice, TC-1 cells were sub-cultured in complete media. On the day of the experiment (Day 0), cells were trypsinized and washed twice with media. Cells were counted and re-suspended at a concentration of 1×10^5 cells/200 ul in PBS/mouse for injection. Tumor cells were injected subcutaneously in the right flank of each mouse. Tumors were measured twice a week until they reached a size of 12 mm in diameter. Once tumors met sacrifice criteria, mice were euthanized and tumors were excised and measured.
Vaccine/Ampicillin Treatment: On Day 6, when tumors are ˜5mm in size; vaccines and treatments began. […]

TPSA23 tumor = TPSA23 tumor regression study, ADXS31-142 with or without ampicillin; type: in vivo, C57BL/6 male mice; settings: DP ADXS31-142 (PSA 1.0) IP, ampicillin 100 mg/kg IP at 4-hr, 6-hr, 24-hr
Description: FIG. 22A-B Results for ADXS31-142 therapy with our without early ampicillin treatment. TC1 tumor regression (FIG. 22A) and % survival (FIG. 22B).
A tumor regression study was initiated in C57BL/6 male mice using TPSA23 prostate cancer cells to assess the therapeutic efficacy of different Lm treatment with or without ampicillin treatment.
Tumor Inoculation: The tumor model used in this study is the TPSA23 tumor model. TPSA23 cells are cultured in complete medium. Complete medium for TPSA23 cells: 430 ml DMEM with Glucose, 45 ml FBS, 25 ml Nu-Serum IV, 5 ml L-Glutamine, 5 ml Na-bicarbonate, 0.005 mg/ml Bovine Insulin—Insulin stock (2.5 mg/ml) is prepared in acidified water (10 ml water+100 ul glacial acetic acid) (Add to the flask while splitting cells—6.4 uL/8 mLs media, 12.8 uL/16 mLs media, 19.2 uL/24 mLs media, etc.), and 10 nM Dehydroisoandrosterone (DHA)—DHA stock (10 mM) is prepared in ethanol. (Add to the flask while splitting cells—140 uL/70 mLs media, 70 uL/35 mLs media, 35 uL/17.5 mLs media, etc.). Two days prior to implanting tumor cells in mice, TPSA23 cells are sub-cultured in complete media. […] Cells were counted and re-suspended at a concentration of 2×10^6 cells/200 ul in PBS/mouse for injection. […] Tumors are measured twice a week until they reach a size of 12 mm in diameter. Once tumors met sacrifice criteria, mice were euthanized and tumors were excised and measured. […]

Molecule: gentamicin
- PSA specific and SIINFEKL specific CD8 T cells, difference between groups ([1]; gentamicin 5 mg/kg IP at 2, 4, 6 hours plus ampicillin 24 hour chase): No significant difference
- solution stability ([2]; 2-8 C): months
- solution stability ([2]; at 37 C): 5 days

Molecule: CC1(C)S[C@@H]2[C@H](NC(=O)[C@H](N)c3ccccc3)C(=O)N2[C@H]1C(=O)O [ampicillin]
- survival, difference between Lm treatment groups with or without ampicillin (TC-1 tumor): No significant difference
- tumor regression, difference between Lm treatment groups with or without ampicillin (TC-1 tumor): No significant difference
- survival, difference between Lm treatment groups with or without ampicillin (TPSA23 tumor): No significant difference
- tumor regression, difference between Lm treatment groups with or without ampicillin (TPSA23 tumor): No significant difference
- PSA specific and SIINFEKL specific CD8 T cells, difference between groups ([1]; ampicillin 100 mg/kg IP at 2, 4, 6 hours plus 24 hours): No significant difference
- solution stability [2]: 3 days
